≈ marks a conversion by molar mass, not a printed value. Where two headings read alike, the source gives them in different places.
Experiments:
Assay in all cases: In vitro antibacterial test, MIC by broth dilution
Type in all cases: cell-based
Escherichia coli = conditions: 18 hours at 35° C.
Description: (§1) The minimum inhibitory concentration (MIC), the lowest concentration of the antibiotic which inhibits growth of the test organism, is determined by the broth dilution method using Muller-Hinton II […] (Baltimore Biological Laboratories) following the recommendations of the National Committee for Clinical Laboratory Standards [Methods for dilution antimicrobial susceptibility tests for bacteria that grow aerobically. Approved standard M7-A2. National Committee for Clinical Laboratory Standards, Villanova, Pa.].
(§2) An inoculum level of 5×10^5 CFU/ml, and a range of antibiotic concentrations (64–0.06 μg/ml) is used. The MIC is determined after the microtiter plates are incubated for 18 hours at 35° C. in an ambient air incubator. The test organisms comprise a spectrum of Gram-positive bacteria Staphylococcus sp., Streptococcus pneumoniae, Enterococcus sp., Gram-negative bacteria Escherichia coli, and the yeast Candida albicans. These organisms include recent clinical isolates that are resistant to piperacillin or vancomycin.

Streptococcus pneumoniae = conditions: 18 h
Description: as §1, §2

Candida albicans = Candida albicans GC 3066; 18 hours at 35° C.
Description: as §1, §2

[1] = tested on: Staphylococcus haemolyticus; conditions: Staphylococcus haemolyticus GC 4547, resistant to methicillin; 18 hours at 35° C.
Description: as §1, §2

Enterococcus faecium = conditions: 18 h
Description: as §1, §2

Enterococcus faecalis = conditions: 18 hours at 35° C.
Description: as §1, §2

Staphylococcus aureus = conditions: 18 h
Description: as §1, §2

## C=CC1C=C(C)C2C3C(Oc4ccc(cc4)CC4(O)C=C(C(=O)N4)C(=O)C13)C1C(C)CC(C)CC21C (stereo not shown) [Cyan426-A]
Escherichia coli; Escherichia coli GC 4559, read-out: MIC
  MIC: 128 µg/mL (≈ 262 µM)
Escherichia coli; Escherichia coli, 18 h, Escherichia coli GC 4560 (imp)
  MIC: 2 µg/mL (≈ 4.1 µM)
Streptococcus pneumoniae; Streptococcus pneumoniae GC 1894, 18 hours at 35° C.
  MIC: 64 µg/mL (≈ 131 µM)
Streptococcus pneumoniae; Streptococcus pneumoniae GC 6242, 18 hours at 35° C.
  MIC: 16 µg/mL (≈ 32.8 µM)
Candida albicans
  MIC: 8 µg/mL (≈ 16.4 µM)
[1]
  MIC: 0.25 µg/mL (≈ 0.513 µM)
Enterococcus faecium; Enterococcus faecium GC 2243, marked * (resistant to methicillin), 18 hours at 35° C.
  MIC: 1 µg/mL (≈ 2.05 µM)
Enterococcus faecium; Enterococcus faecium GC 4556, 18 hours at 35° C.
  MIC: 1 µg/mL (≈ 2.05 µM)
Enterococcus faecium; Enterococcus faecium GC 4558, marked * (resistant to methicillin), 18 hours at 35° C.
  MIC: 0.5 µg/mL (≈ 1.03 µM)
Enterococcus faecalis; Enterococcus faecalis GC 2242, resistant to vancomycin
  MIC: 0.50 µg/mL (≈ 1.03 µM)
Enterococcus faecalis; Enterococcus faecalis GC 4555
  MIC: 0.50 µg/mL (≈ 1.03 µM)
Enterococcus faecalis; Enterococcus faecalis GC 6189, read-out: MIC
  MIC: 0.5 µg/mL (≈ 1.03 µM)
Staphylococcus aureus; Staphylococcus aureus GC 1131, resistant to methicillin, 18 hours at 35° C.
  MIC: 2 µg/mL (≈ 4.1 µM)
Staphylococcus aureus; Staphylococcus aureus GC 2216, 18 hours at 35° C.
  MIC: 1 µg/mL (≈ 2.05 µM)
Staphylococcus aureus; Staphylococcus aureus GC 4541, resistant to methicillin, 18 hours at 35° C.
  MIC: 0.25 µg/mL (≈ 0.513 µM)
Staphylococcus aureus; Staphylococcus aureus GC 4543, 18 hours at 35° C.
  MIC: 1 µg/mL (≈ 2.05 µM)

Reference: patent publication US7129266B2, “Antibiotic Cyan426-A” (Wyeth Holdings Corporation, priority 2002, dated 2006)
